These results are taken from US6608080B1, “Morphan derivatives or salts thereof and medicinal compositions containing the same” (Hisamitsu Pharmaceutical Co., Ltd., priority 1999, dated 2003).

Counter-ions that a name gives are not always drawn.

The subject of one data set is glycine receptors. Put plainly: ionic current induced by glycine in a single neuron of the tractus solitarius nucleus, whole cell patch clamp. The settings on record: for type of effect on glycine-induced ionic currents (in words): classification, 1 mM, example 7 at 300 μM; for Action (% of control): mean ± S.E. Also noted: key to Action (class symbol): ±: no action; +: potentiated; −: inhibited. The data set is classed as cell-based, guinea pig. As to the method: In order to confirm the excellent actions of the derivatives described in the present invention on modification of glycine receptors, the actions of various morphan derivatives against ionic current induced by glycine were evaluated in a single neuron of the tractus solitarius nucleus of a guinea pig.
The isolation of a single neuron was performed according to the method described in Kay et al. (J. Neurosci. Meth., 16, 227-238, 1986). Guinea pigs, Hartley strain, 7-10 days of age, were anesthetized, bled and decapitated and the medullae were rapidly extracted. Sliced sections, thickness 400 μm, were prepared by using a microslicer. The sliced segments obtained were incubated at 37° C. for 30 minutes, and regions of the tractus solitarius nucleus were punched out under a stereoscope. The punched out specimens were trypsinized in a 100% oxygen atmosphere at 37° C. for 30-60 minutes. The trypsinized tissues were dispersed mechanically to obtain the single neurons. Measurements of the ionic currents activated by glycine were performed using the whole cell mode of the patch clamp method. The ionic currents obtained were recorded using a pen-recorder. Administration of the test compounds was performed by the Y-tube method in which the external fluid peripheral to the cells could be changed to the test drug solution within 2 msec. (Neurosci. Lett., 103, 56-63, 1989). Concentrations of the test compounds were 1 mM, except that the highly lipophilic compound of example 7 was examined at 300 μM. All data were expressed by mean±S.E.
In Table 1, the effects of the morphan derivatives on ionic currents in single neurons from the tractus solitarius nucleus, induced by glycine at 30 μM are summarized.
A general note: Patch clamp records ionic current or voltage across a cell membrane.

The subject of another data set is GABA-induced currents. Put plainly: GABA-induced currents in a single neuron, whole cell patch clamp. The settings on record: test compound 1 mM; GABA 30 μM (FIG. 1). The data set is classed as cell-based, guinea pig.
[1] abbreviates: glycine 30 μM, test compound 1 mM.
Setting [2] is: glycine 30 μM, test compound 300 μM.

With `C=CCN1CCC2CCCC1C2` (stereo not drawn) [Example 3, 2-Allyl-2-azabicyclo[3.3.1]nonane], in the data set with glycine receptors, the “type of effect on glycine-induced ionic currents (in words)” value (from here on “type of effect”) is “potentiation action”. In the data set with glycine receptors (setting [1]), the “Action (class symbol)” value is reported as “+” and the “Action (% of control)” value is listed as 138.9 ± 5.6%.

`CCN1CCC2CCCC1C2` (stereo not drawn) [Example 2, 2-Ethyl-2-azabicyclo[3.3.1]nonane]: in the data set on glycine receptors, the “type of effect” value is reported as “potentiation action”. Also, in the data set with glycine receptors (glycine 30 μM), the “rank of action on glycine-induced current” value was “strongest enhancing action”. Also, in the data set with glycine receptors (setting [1]), the “Action (class symbol)” value was “+” and the “Action (% of control)” value is on record as 150.6 ± 14.2%. The “action against GABA-induced currents” value in the data set with GABA-induced currents is “no action”.

On to `C1CC2CCN3CCCC3(C1)C2` (stereo not drawn) [Example 6, 5-Azatricyclo[6.3.1.0^1,5]dodecane], for which, in the data set with glycine receptors, the “type of effect” value is recorded as “potentiation action”. Moreover, in the data set on glycine receptors (setting [1]), the “Action (class symbol)” value was “+” and the “Action (% of control)” value stood at 152.1 ± 16.6%.

`CN1CCC2CCCC1C2` (stereo not drawn) (as salt: hydrochloric acid salt) [Example 1, 2-Methyl-2-azabicyclo[3.3.1]nonane] yielded a melting point of 147 to 152 °C.

Consider `C=CCC12CCCC(CCN1Cc1ccccc1O)C2` (stereo not drawn) [Example 7, 2-{[1-Allyl-(2-propenyl)-2-azabicyclo[3.3.1]nonane-2-yl]methyl}phenol], for which the “concentration range of concentration-dependent inhibition of glycine-induced currents” value with glycine receptors (FIG. 2, glycine 30 μM) lay in the range of 10 to 300 µM. In the data set on glycine receptors (setting [2]), the “Action (class symbol)” value was “−” and the “Action (% of control)” value was 60.5 ± 2.7%.

Take `CCC12CCCC(CCN1)C2` (stereo not drawn) [Example 4, 1-Ethyl-2-azabicyclo[3.3.1]nonane]: in the data set on glycine receptors, the “type of effect” value is listed as “inhibitory action”. Further, in the data set on glycine receptors (setting [1]), the “Action (class symbol)” value is listed as “−” and the “Action (% of control)” value stood at 70.9 ± 2.7%.

With `CCCC12CCCC(CCN1)C2` (stereo not drawn) [Example 5, 1-Propyl-2-azabicyclo[3.3.1]nonane], the “type of effect” value in the data set with glycine receptors is given as “potentiation action”. Also, in the data set on glycine receptors (setting [1]), the “Action (class symbol)” value was “+” and the “Action (% of control)” value was found to be 138.1 ± 7.0%.

Take `CN1CCC2CCCC1C2` (stereo not drawn) [Example 1, 2-Methyl-2-azabicyclo[3.3.1]nonane]: in the data set on glycine receptors, the “type of effect” value is “weak action”. In the data set with glycine receptors (setting [1]), the “Action (class symbol)” value is “±” and the “Action (% of control)” value amounted to 99.7 ± 1.5%.

What is called melting point is the temperature, or range, at which the solid turns liquid.
